According to patent publication US20250127904A1, “SIGLEC LIGANDS, CONJUGATES, AND METHODS OF USE THEREOF” (Osprey Biopharmaceuticals, Inc., priority 2023, published 2025):

Legend:
[1] = target: T1, biotinylated mouse siglec-2-Fc-Avi (Mus musculus, UniProt P35329); assay: SPR binding to mouse siglec-2/CD22; details: steady-state analysis, read-out: Mouse CD22 affinity
T1 construct: made in house
T1 sequence (P35329 22-708 limits assumed): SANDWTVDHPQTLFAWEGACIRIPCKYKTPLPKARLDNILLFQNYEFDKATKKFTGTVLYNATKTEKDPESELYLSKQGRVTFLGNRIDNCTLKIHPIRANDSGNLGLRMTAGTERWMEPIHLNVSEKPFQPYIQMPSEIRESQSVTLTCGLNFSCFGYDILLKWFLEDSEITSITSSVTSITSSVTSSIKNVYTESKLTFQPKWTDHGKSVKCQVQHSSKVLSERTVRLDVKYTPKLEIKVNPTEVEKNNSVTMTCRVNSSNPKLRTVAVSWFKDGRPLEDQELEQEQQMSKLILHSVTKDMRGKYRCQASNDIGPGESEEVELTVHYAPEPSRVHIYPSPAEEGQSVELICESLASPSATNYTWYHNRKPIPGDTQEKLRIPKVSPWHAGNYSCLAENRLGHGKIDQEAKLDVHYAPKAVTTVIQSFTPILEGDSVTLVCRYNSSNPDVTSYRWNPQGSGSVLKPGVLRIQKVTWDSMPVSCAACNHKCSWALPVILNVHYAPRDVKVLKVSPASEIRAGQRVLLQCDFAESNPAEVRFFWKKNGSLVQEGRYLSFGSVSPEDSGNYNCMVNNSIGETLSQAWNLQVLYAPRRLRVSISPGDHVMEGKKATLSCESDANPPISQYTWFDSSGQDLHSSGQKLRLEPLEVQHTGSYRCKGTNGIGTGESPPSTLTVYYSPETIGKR
Description: (§1) The following proteins were used for CD22 ligand binding: biotinylated human siglec-2/CD22 protein-His-Avitag (Acro Biosystems, Cat #SI2-H82E3), biotinylated mouse siglec-2-Fc-Avi (in-house production), and recombinant cynomolgus siglec-2/CD22 His-tag (R&D systems, Cat #9864-SL-050). Prior to immobilization, CD22 proteins were treated with SialoExo (Genovis, Cat #G1-SM1-020) for 4 hours at 37° C. to remove native sialic acid residues.
(§2) Capture of biotinylated CD22 constructs was performed using a Cytiva SA chip (BR100398) on a Biacore 8K instrument. Human siglec 2 was immobilized on channels 1-4 and mouse siglec 2 on channels 5-8 on the active flow cell (2) and the reference flow cell (1) was immobilized with biotinylated human FGFR2 Fc Avi, an unrelated protein, to account for any nonspecific binding. Human siglec 2 and Mouse siglec 2 were diluted in running buffer to 20 μg/mL and injected on the active flow cell (2) for 300 seconds at 5 μL/min, yielding about 3500 RU of captured constructs.
(§3) Binding experiments of siglec-ligand conjugated proteins or Siglec ligand compounds were performed on the surfaces prepared above in 10 mM HEPES, 150 mM NaCl, 0.05% Tween-20, pH 7.5, 1% DMSO as the running buffer. Compounds were serially diluted in running buffer from 50 μM to 97.6 nM and injected over both the reference and active flow cells for 90 seconds at 30 μL/min. The compounds were then allowed to dissociate from the surface for 120 seconds. No regeneration was required as the compounds completely dissociated from the surface after 30 seconds. Solvent correction was performed using 0.5, 1, 1.5, and 2% DMSO spike into running buffer without DMSO. Data was analyzed using steady-state analysis in Biacore Insight Evaluation Software, version 3.0.

[2] = target: T2, biotinylated human siglec-2/CD22 protein-His-Avitag (Homo sapiens, UniProt P20273); assay: SPR binding to human siglec-2/CD22; details: steady-state analysis, read-out: Human CD22 affinity
T2 construct: purchased Acro Biosystems SI2-H82E3
T2 sequence (P20273 20-847): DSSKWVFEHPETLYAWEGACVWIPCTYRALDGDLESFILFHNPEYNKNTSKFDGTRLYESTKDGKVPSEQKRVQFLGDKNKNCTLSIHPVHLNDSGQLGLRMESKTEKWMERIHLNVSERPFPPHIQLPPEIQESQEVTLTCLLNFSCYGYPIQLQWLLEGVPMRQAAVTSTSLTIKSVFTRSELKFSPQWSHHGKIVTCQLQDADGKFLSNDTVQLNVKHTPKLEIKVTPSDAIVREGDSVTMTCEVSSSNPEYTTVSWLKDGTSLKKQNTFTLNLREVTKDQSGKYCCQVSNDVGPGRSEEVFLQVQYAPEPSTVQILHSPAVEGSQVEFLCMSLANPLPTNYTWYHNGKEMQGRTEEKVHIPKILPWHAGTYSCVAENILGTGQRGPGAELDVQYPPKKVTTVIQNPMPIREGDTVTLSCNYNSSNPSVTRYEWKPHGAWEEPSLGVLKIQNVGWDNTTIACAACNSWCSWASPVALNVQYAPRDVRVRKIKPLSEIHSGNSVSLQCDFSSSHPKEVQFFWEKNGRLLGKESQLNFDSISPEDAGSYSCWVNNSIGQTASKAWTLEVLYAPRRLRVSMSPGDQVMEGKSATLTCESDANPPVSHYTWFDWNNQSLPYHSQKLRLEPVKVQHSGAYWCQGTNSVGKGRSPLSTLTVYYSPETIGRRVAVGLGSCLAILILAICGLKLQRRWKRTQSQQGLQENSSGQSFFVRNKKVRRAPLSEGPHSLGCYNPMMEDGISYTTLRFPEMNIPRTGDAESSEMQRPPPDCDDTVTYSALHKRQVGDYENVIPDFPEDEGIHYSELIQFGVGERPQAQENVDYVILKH
Description: as §1, §2, §3

[3] = target: recombinant cynomolgus siglec-2/CD22 His-tag (Macaca fascicularis, UniProt A0A2K5WCZ6); assay: SPR binding to cynomolgus siglec-2/CD22; details: steady-state analysis, read-out: Cyno CD22 affinity
recombinant cynomolgus siglec-2/CD22 His-tag, sequence (A0A2K5WCZ6 entry or part of it): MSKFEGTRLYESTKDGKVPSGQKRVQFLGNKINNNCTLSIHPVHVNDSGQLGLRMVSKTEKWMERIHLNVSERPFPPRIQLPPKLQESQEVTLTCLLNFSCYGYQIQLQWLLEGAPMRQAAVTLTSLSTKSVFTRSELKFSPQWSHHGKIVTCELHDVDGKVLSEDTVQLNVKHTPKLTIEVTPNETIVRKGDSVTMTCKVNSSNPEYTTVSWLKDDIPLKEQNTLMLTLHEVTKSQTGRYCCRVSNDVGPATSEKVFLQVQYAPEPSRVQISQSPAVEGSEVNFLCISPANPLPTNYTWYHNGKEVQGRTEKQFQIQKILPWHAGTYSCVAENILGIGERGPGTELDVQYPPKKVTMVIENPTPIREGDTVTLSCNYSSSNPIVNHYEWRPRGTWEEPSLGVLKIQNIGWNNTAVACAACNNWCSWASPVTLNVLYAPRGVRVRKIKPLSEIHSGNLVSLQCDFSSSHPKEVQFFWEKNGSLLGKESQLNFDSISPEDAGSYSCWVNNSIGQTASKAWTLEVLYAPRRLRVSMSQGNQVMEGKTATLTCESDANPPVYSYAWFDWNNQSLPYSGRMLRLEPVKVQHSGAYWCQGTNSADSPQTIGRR
Description: as §1
Surface preparation for cyno CD22 protein consisted of amine coupling to Cytiva CM5 chip (Cytiva, Cat #BR100530) using the Cytiva amine coupling kit Type 2 (Cytiva, Cat #BR100633). Following the standard amine coupling protocols, EDC and NHS from the kit were mixed 1:1 and injected over flow cells 1 and 2. Cyno CD22 was then immobilized by injecting 10 μg/mL in Sodium Acetate, pH 5.5 onto flow cell (2) for 420 seconds at 10 uL/min, yielding approximately 2500 RU of captured protein. Any active carboxy groups were then capped with 1M Ethanolamine, pH 8.5 for 420 s on flow cells 1 and 2.
as §3

| SMILES | Kd [1] | Kd [2] | Kd [3] |
| --- | --- | --- | --- |
| C#CCOCCOCCOCCC(=O)N[C@H]1[C@H]([C@H](O)[C@H](O)CNC(=O)Cc2ccc(Cl)cc2)O[C@@](OCc2ccccc2)(C(=O)O)C[C@@H]1O [Compound 21, (2R,4S,5R,6R)-2-(benzyloxy)-6-((1R,2R)-3-(2-(4-chlorophenyl)acetamido)-1,2-dihydroxypropyl)-4-hydroxy-5-(3-(2-(2-(prop-2-yn-1-yloxy)ethoxy)ethoxy)propanamido)tetrahydro-2H-pyran-2-carboxylic acid] | > 10000 nM | 1000 to 10000 nM | 1000 to 10000 nM |
| CCCNC(=O)CCOCCOCCOCCn1cc(CO[C@H]2C[C@](OCc3ccccc3)(C(=O)O)O[C@@H]([C@H](O)[C@H](O)CNC(=O)Cc3ccc(Cl)cc3)[C@@H]2NC(=O)CO)nn1 [Compound 19, (2R,4S,5R,6R)-2-(benzyloxy)-6-((1R,2R)-3-(2-(4-chlorophenyl)acetamido)-1,2-dihydroxypropyl)-5-(2-hydroxyacetamido)-4-((1-(12-oxo-3,6,9-trioxa-13-azahexadecyl)-1H-1,2,3-triazol-4-yl)methoxy)tetrahydro-2H-pyran-2-carboxylic acid] | 1000 to 10000 nM | 1000 to 10000 nM | 1000 to 10000 nM |
| C#CCOCCOCCOc1ccc(CC(=O)NC[C@@H](O)[C@@H](O)[C@@H]2O[C@@](OCc3ccccc3)(C(=O)O)C[C@H](O)[C@H]2NC(=O)CO)cc1 [Compound 15, (2R,4S,5R,6R)-2-(benzyloxy)-6-((1R,2R)-1,2-dihydroxy-3-(2-(4-(2-(2-(prop-2-yn-1-yloxy)ethoxy)ethoxy)phenyl)acetamido)propyl)-4-hydroxy-5-(2-hydroxyacetamido)tetrahydro-2H-pyran-2-carboxylic acid] | 1000 to 10000 nM | 1000 to 10000 nM | 1000 to 10000 nM |
| C#Cc1ccc(CC(=O)NC[C@@H](O)[C@@H](O)[C@@H]2O[C@@](OCc3ccc(O)cc3)(C(=O)O)C[C@H](O)[C@H]2NC(=O)CO)cc1 [Compound 3, (2R,4S,5R,6R)-6-((1R,2R)-3-(2-(4-ethynylphenyl)acetamido)-1,2-dihydroxypropyl)-4-hydroxy-5-(2-hydroxyacetamido)-2-((4-hydroxybenzyl)oxy)tetrahydro-2H-pyran-2-carboxylic acid] | 1000 to 10000 nM | < 1000 nM | < 1000 nM |

Now from value to compound:

| Kd [1] | Kd [2] | Kd [3] | SMILES |
| --- | --- | --- | --- |
| 1000 to 10000 nM | 1000 to 10000 nM | 1000 to 10000 nM | C#CCO[C@H]1C[C@](OCCCCCC(=O)O)(C(=O)O)O[C@@H]([C@H](O)[C@H](O)CNC(=O)Cc2ccc(Cl)cc2)[C@@H]1NC(=O)CO [Compound 20, (2R,4S,5R,6R)-2-((5-carboxypentyl)oxy)-6-((1R,2R)-3-(2-(4-chlorophenyl)acetamido)-1,2-dihydroxypropyl)-5-(2-hydroxyacetamido)-4-(prop-2-yn-1-yloxy)tetrahydro-2H-pyran-2-carboxylic acid] |
| 1000 to 10000 nM | < 1000 nM | 1000 to 10000 nM | CCCNC(=O)CCOCCOCCOCCOCCn1cc(-c2ccc(CC(=O)NC[C@@H](O)[C@@H](O)[C@@H]3O[C@@](OCCCCCCn4cc(COCCOC)nn4)(C(=O)O)C[C@H](O)[C@H]3NC(=O)CO)cc2)nn1 [Compound 55, (2R,4S,5R,6R)-6-((1R,2R)-1,2-dihydroxy-3-(2-(4-(1-(15-oxo-3,6,9,12-tetraoxa-16-azanonadecyl)-1H-1,2,3-triazol-4-yl)phenyl)acetamido)propyl)-4-hydroxy-5-(2-hydroxyacetamido)-2-((6-(4-((2-methoxyethoxy)methyl)-1H-1,2,3-triazol-1-yl)hexyl)oxy)tetrahydro-2H-pyran-2-carboxylic acid] |
| < 1000 nM | < 1000 nM | < 1000 nM | C#Cc1ccc(CC(=O)NC[C@@H](O)[C@@H](O)[C@@H]2O[C@@](SCc3ccccc3)(C(=O)O)C[C@H](O)[C@H]2NC(=O)CO)cc1 [Compound 12, (2S,4S,5R,6R)-2-(benzylthio)-6-((1R,2R)-3-(2-(4-ethynylphenyl)acetamido)-1,2-dihydroxypropyl)-4-hydroxy-5-(2-hydroxyacetamido)tetrahydro-2H-pyran-2-carboxylic acid] |
| < 1000 nM | < 1000 nM | 1000 to 10000 nM | O=C(O)CCCCCCCCCCc1ccc(CC(=O)NC[C@@H](O)[C@@H](O)[C@@H]2O[C@@](OCc3ccccc3)(C(=O)O)C[C@H](O)[C@H]2NC(=O)CO)cc1 [Compound 8, (2R,4S,5R,6R)-2-(benzyloxy)-6-((1R,2R)-3-(2-(4-(10-carboxydecyl)phenyl)acetamido)-1,2-dihydroxypropyl)-4-hydroxy-5-(2-hydroxyacetamido)tetrahydro-2H-pyran-2-carboxylic acid] |
